The values below come from patent US20200131669A1, “CYCLIC PEPTIDE COMPOUND HAVING HIGH MEMBRANE PERMEABILITY, AND LIBRARY CONTAINING SAME” (Chugai Seiyaku Kabushiki Kaisha, priority 2017, published 2020).

Where two headings read alike, the source gives them in different places. Starred links: 1 amine or outer side, 2 acyl side, 3 side chain; linkers in the order of their positions; H or OH if unused. Positions of bridges follow the written chain, without caps; N, C: chain ends. Non-standard residues stand in square brackets, D forms with d. Residues, ends and D or L forms follow the SMILES beside them. *: point of attachment. X7 = CC(C(=O)[C@H](Cc1ccccc1)N(C)[*:1])[C@@H](Cc1ccccc1)C(=O)[*:2]; NMeF = CN[C@@H](Cc1ccccc1)C(=O)O; 3Pal = N[C@@H](Cc1cccnc1)C(=O)O; NMeD = CN[C@@H](CC(=O)O)C(=O)O; aThr = C[C@H](O)[C@H](N)C(=O)O; NMeL = CN[C@@H](CC(C)C)C(=O)O; NMeV = CN[C@H](C(=O)O)C(C)C; NMeA = CN[C@@H](C)C(=O)O; Piperidide = C1CCN(*)CC1; dNMeA = CN[C@H](C)C(=O)O; Sar = CNCC(=O)O; tBu = CC(C)(C)*

A short description of this series: Caco-2 membrane permeability, improved method as used in the following Examples (96-well, 20 to 24 h preincubation). Type of series: in vitro ADME. The settings on record: human. The essentials: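 Caco-2 monolayers were grown three weeks and preincubated 20–24 h at 37 °C with compound in DMEM+FaSSIF (1% DMSO) apically. The assay then used compound in FaSSIF/HBSS (1% DMSO, pH 6.0) apically and HBSS with 4% BSA (pH 7.4) basally. Basal samples were taken at 180 min for LC/MS, and Papp (cm/sec) was calculated.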
For orientation: Caco-2 monolayers are a common model of the intestinal barrier.

On to `CC(C)C[C@@H]1NC(=O)[C@H](Cc2ccccc2)N(C)C(=O)[C@@H]2CCCN2C(=O)C[C@@H](C(=O)N2CCCCC2)N(C)C(=O)[C@H](Cc2ccccc2)C(C)C(=O)[C@H](Cc2ccccc2)N(C)C(=O)[C@H](COC(C)(C)C)NC(=O)[C@H](C(C)C)N(C)C(=O)CN(C)C(=O)[C@H]([C@@H](C)O)NC(=O)[C@H](CC(C)C)N(C)C1=O` (stereo partly shown) [pd196] (P[NMeF]L[NMeL]T[Sar][NMeV]S(tBu)[X7][NMeD]-Piperidide; lactam N-10), for which the Papp A→B at 180 min (Caco-2, Papp, Table 23-1, sequences where ARC = 3, read-out: Caco-2) amounted to 4 ×10⁻⁶ cm/s. As for `CC(C)C[C@@H]1NC(=O)[C@H](Cc2ccccc2)N(C)C(=O)[C@H](C)N(C)C(=O)C[C@@H](C(=O)N2CCCCC2)NC(=O)[C@H](C(C)C)N(C)C(=O)[C@H](Cc2ccccc2)N(C)C(=O)[C@H](COC(C)(C)C)NC(=O)[C@H](CC(C)C)N(C)C(=O)CN(C)C(=O)[C@H](Cc2cccnc2)NC(=O)[C@H](CC(C)C)N(C)C1=O` [pd197] ([NMeA][NMeF]L[NMeL][3Pal][Sar][NMeL]S(tBu)[NMeF][NMeV]D-Piperidide; lactam N-11), where the note is “Caco-2, Caco-2 (cm/sec)”, the Papp A→B at 180 min was found to be 3 ×10⁻⁶ cm/s.

In the case of `CC(C)C[C@@H]1NC(=O)[C@H](Cc2ccccc2)N(C)C(=O)[C@@H](C)N(C)C(=O)C[C@@H](C(=O)N2CCCCC2)N(C)C(=O)[C@H](Cc2ccccc2)N(C)C(=O)[C@H](Cc2ccccc2)N(C)C(=O)[C@H](COC(C)(C)C)NC(=O)[C@H](C(C)C)N(C)C(=O)CN(C)C(=O)[C@H]([C@@H](C)O)NC(=O)[C@H](CC(C)C)N(C)C1=O` [pd199] ([dNMeA][NMeF]L[NMeL]T[Sar][NMeV]S(tBu)[NMeF][NMeF][NMeD]-Piperidide; lactam N-11), under “Caco-2, Caco-2 (cm/sec)”, the Papp A→B at 180 min was determined as 2.6 ×10⁻⁶ cm/s. Still for that read-out and setting: as for `CC(C)C[C@@H]1NC(=O)[C@H](Cc2ccccc2)N(C)C(=O)[C@H]2CCCN2C(=O)C[C@@H](C(=O)N2CCCCC2)N(C)C(=O)[C@H](Cc2ccccc2)N(C)C(=O)[C@H](Cc2ccccc2)N(C)C(=O)[C@H](COC(C)(C)C)NC(=O)[C@H](C(C)C)N(C)C(=O)CN(C)C(=O)[C@H]([C@@H](C)O)NC(=O)[C@H](CC(C)C)N(C)C1=O` [pd200] ([dP][NMeF]L[NMeL]T[Sar][NMeV]S(tBu)[NMeF][NMeF][NMeD]-Piperidide; lactam N-11), the figure is 2.6 ×10⁻⁶ cm/s. In the case of `CC[C@H](C)[C@@H]1NC(=O)[C@H](CC(C)C)N(C)C(=O)[C@H](C)N(C)C(=O)[C@H]([C@H](C)O)NC(=O)[C@H](Cc2ccccc2)N(C)C(=O)[C@H](C)N(C)C(=O)[C@@H](C)N(C)C(=O)C[C@@H](C(=O)N(C)[C@@H](Cc2ccccc2)C(=O)N(C)[C@@H](Cc2ccccc2)C(=O)N[C@@H](C)C(=O)N2CCCCC2)NC(=O)[C@H](C(C)C)N(C)C(=O)[C@H](CC(C)C)N(C)C1=O` [pd201] ([dNMeA][NMeA][NMeF][aThr][NMeA][NMeL]I[NMeL][NMeV]D[NMeF][NMeF]A-Piperidide; lactam N-10), the Papp A→B at 180 min (Caco-2, read-out: Caco-2) was 2.3 ×10⁻⁶ cm/s.

`CC(C)C[C@@H]1NC(=O)[C@H](Cc2ccccc2)N(C)C(=O)[C@H](C)N(C)C(=O)C[C@@H](C(=O)N2CCCCC2)N(C)C(=O)[C@H](Cc2ccccc2)N(C)C(=O)[C@H](Cc2ccccc2)N(C)C(=O)[C@H](COC(C)(C)C)NC(=O)[C@H](C(C)C)N(C)C(=O)CN(C)C(=O)[C@H]([C@@H](C)O)NC(=O)[C@H](CC(C)C)N(C)C1=O` [pd202] ([NMeA][NMeF]L[NMeL]T[Sar][NMeV]S(tBu)[NMeF][NMeF][NMeD]-Piperidide; lactam N-11) returned a Papp A→B at 180 min (Caco-2, Caco-2 (cm/sec)) of 2.1 ×10⁻⁶ cm/s. In turn, `CC(C)C[C@@H]1NC(=O)[C@H](Cc2ccccc2)N(C)C(=O)[C@@H]2CCCN2C(=O)C[C@@H](C(=O)N2CCCCC2)NC(=O)[C@H](Cc2ccccc2)N(C)C(=O)[C@H](Cc2ccccc2)N(C)C(=O)[C@H](COC(C)(C)C)NC(=O)[C@H](CC(C)C)N(C)C(=O)CN(C)C(=O)[C@H]([C@@H](C)O)NC(=O)[C@H](CC(C)C)N(C)C1=O` [pd203] (P[NMeF]L[NMeL]T[Sar][NMeL]S(tBu)[NMeF][NMeF]D-Piperidide; lactam N-11) came in with a Papp A→B at 180 min (Caco-2, Caco-2 (cm/sec)) of 2.1 ×10⁻⁶ cm/s.
